These results are taken from US7196110B2, “N-substituted tricyclic 3-aminopyrazoles as inhibitors for the treatment of cell proliferative disorders” (Janssen Phamaceutica N.V., priority 2002, dated 2007).

The assay deals with T1, PDGF-receptor beta enzyme comprising the tyrosine kinase domain (Homo sapiens, UniProt P09619).
T1 construct: from amino acid 545 to 1106 of GenBank Access NO: AAA36427
Kind of assay: Inhibition of PDGF-receptor kinase activity (cell-free, PLC1 peptide, 33P Flashplate). In kind it is biochemical. Particulars: for inhibition at 10 µM: compound at 10 uM, read-out: Percent Inhibition @ 10 uM. An outline of the steps:
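The IC50 is the inhibitor level halving kinase activity relative to inhibitor-free wells, measured as 33P captured on a streptavidin-bound biotin-PLC1 peptide. The reaction ran 60 min at 30 °C in pH 8 Tris buffer with 1 mM DTT, 5 μM ATP and the 545–1106 kinase-domain enzyme.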

[1] abbreviates: PDGF-R kinase activity, read-out: IC50.
Where [2] appears, read: read-out: IC50 (μM) on PDGF-R kinase activity.

The inhibition is the change of the read-out against control, counted positive when it falls. The IC50 is the concentration that inhibits the measured activity by half.

Read-outs that look alike come from different tables or passages of the source.

T1 sequence (P09619 545-1106): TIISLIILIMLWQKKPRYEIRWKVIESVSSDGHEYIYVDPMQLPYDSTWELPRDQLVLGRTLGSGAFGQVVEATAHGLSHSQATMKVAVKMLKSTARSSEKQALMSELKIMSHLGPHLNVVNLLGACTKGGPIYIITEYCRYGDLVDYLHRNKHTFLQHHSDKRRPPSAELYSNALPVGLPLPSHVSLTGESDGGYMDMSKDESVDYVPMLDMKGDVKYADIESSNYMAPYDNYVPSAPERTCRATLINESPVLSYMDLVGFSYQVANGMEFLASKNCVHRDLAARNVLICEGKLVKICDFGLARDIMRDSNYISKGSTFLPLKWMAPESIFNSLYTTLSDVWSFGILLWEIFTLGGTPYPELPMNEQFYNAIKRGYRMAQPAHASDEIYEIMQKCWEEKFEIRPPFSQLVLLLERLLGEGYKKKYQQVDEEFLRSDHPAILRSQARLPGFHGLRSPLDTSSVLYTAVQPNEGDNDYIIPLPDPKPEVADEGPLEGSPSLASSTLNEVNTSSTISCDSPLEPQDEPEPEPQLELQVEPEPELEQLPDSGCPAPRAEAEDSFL

As for `COc1cc2c(cc1OC)-c1n[nH]c(Nc3cccc(C(=O)NCCO)c3)c1C2` [Compound 297, 3-(6,7-Dimethoxy-2,4-dihydro-indeno[1,2-c]pyrazol-3-ylamino)-N-(2-hydroxy-ethyl)-benzamide], the inhibition at 10 µM (PDGF-R kinase activity) was determined as 90.5%. Moreover, under setting [1], the half-inhibitory concentration (IC50) came to 0.275 µM.

In the case of `COc1cc2c(cc1OC)-c1n[nH]c(Nc3ncc(Br)cc3C)c1C2` [Compound 576, (5-Bromo-3-methyl-pyridin-2-yl)-(6,7-dimethoxy-2,4-dihydro-indeno[1,2-c]pyrazol-3-yl)-amine], the inhibition at 10 µM (PDGF-R kinase activity) stood at 18%. Under setting [2], the concentration for half-maximal inhibition (IC50) stood at 33.3 µM. `COc1cc2c(cc1OC)-c1c(c(Nc3cccc(F)c3)nn1C(=O)NCCNC(=O)c1ccccc1)C2` [Compound 532, 3-(3-Fluoro-phenylamino)-6,7-dimethoxy-4H-indeno[1,2-c]pyrazole-1-carboxylic acid (2-benzoylamino-ethyl)-amide]: under “PDGF-R kinase activity”, the inhibition at 10 µM was 42%.

Turning to `COc1ccc(OC)c(CNc2[nH]nc3c2Cc2ccc(C)cc2-3)c1` [Compound 316, (2,5-Dimethoxy-benzyl)-(7-methyl-2,4-dihydro-indeno[1,2-c]pyrazol-3-yl)-amine], for the setting “PDGF-R kinase activity”, the inhibition at 10 µM was found to be 66%. In addition, the IC50 under setting [1] was 4.91 µM.

As for `CCC1c2cc(OC)c(OC)cc2-c2n[nH]c(Nc3cccnc3Cl)c21` (single isomer, unassigned) [Compound 607, (2-Chloro-pyridin-3-yl)-(4-ethyl-6,7-dimethoxy-2,4-dihydro-indeno[1,2-c]pyrazol-3-yl)-amine], the inhibition at 10 µM (PDGF-R kinase activity) is 78%. Under setting [2], the IC50 was determined as 0.547 µM.

On to `Fc1ccc2c(c1)Cc1c-2n[nH]c1Nc1ccc(OC(F)(F)F)cc1` [Compound 238, (6-Fluoro-2,4-dihydro-indeno[1,2-c]pyrazol-3-yl)-(4-trifluoromethoxy-phenyl)-amine], for which the inhibition at 10 µM (PDGF-R kinase activity) stood at 87%. Under setting [1], the half-maximal inhibitory concentration (IC50) turned out to be 0.419 µM.

As for `CC1c2ccccc2-c2n[nH]c(Nc3ccc(OC(F)(F)F)cc3)c21` (stereo not drawn) [Compound 113, (4-Methyl-2,4-dihydro-indeno[1,2-c]pyrazol-3-yl)-(4-trifluoromethoxy-phenyl)-amine], the inhibition at 10 µM (PDGF-R kinase activity) turned out to be 60%. Further, the half-inhibitory concentration (IC50) under setting [1] worked out at 2.45 µM. For `Cc1ccccc1CNc1[nH]nc2c1Cc1c(OCCCO)cccc1-2` [Compound 445, 3-[3-(2-Methyl-benzylamino)-2,4-dihydro-indeno[1,2-c]pyrazol-5-yloxy]-propan-1-ol], in that order: 95% and 0.0253 µM.

`COC(=O)CCC(=O)n1nc(Nc2cccc(F)c2)c2c1-c1cc(OC)c(OC)cc1C2` [Compound 428, 4-[3-(3-Fluoro-phenylamino)-6,7-dimethoxy-4H-indeno[1,2-c]pyrazol-1-yl]-4-oxo-butyric acid methyl ester]: the inhibition at 10 µM (PDGF-R kinase activity) worked out at 85.5%. The IC50 under setting [1] was determined as 0.432 µM. For `Fc1ccccc1CNc1[nH]nc2c1Cc1c(OCCCN3CCOCC3)cccc1-2` [Compound 416, (2-Fluoro-benzyl)-[5-(3-morpholin-4-yl-propoxy)-2,4-dihydro-indeno[1,2-c]pyrazol-3-yl]-amine], in that order: 72.5% and 1.19 µM. On the same counts, the results for `COc1cc2c(cc1OC)-c1nn(COC(=O)C(C)(C)C)c(Nc3cccc(F)c3)c1C2` [Compound 408, 2,2-Dimethyl-propionic acid 3-(3-fluoro-phenylamino)-6,7-dimethoxy-4H-indeno[1,2-c]pyrazol-2-ylm ethyl ester] are 83% and 0.687 µM. For `COCC(=O)OCC(=O)n1nc(Nc2cccc(F)c2)c2c1-c1cc(OC)c(OC)cc1C2` [Compound 473, Methoxy-acetic acid 2-[3-(3-fluoro-phenylamino)-6,7-dimethoxy-4H-indeno[1,2-c]pyrazol-1-yl]-2-oxo-ethyl ester], for the setting “PDGF-R kinase activity”, the inhibition at 10 µM was 98.5%. The concentration for half-maximal inhibition (IC50) under setting [1] was found to be 0.00896 µM.

With `COc1cc2c(cc1OC)-c1n[nH]c(NCc3cccc(Cl)c3)c1C2` [Compound 424, (3-Chloro-benzyl)-(6,7-dimethoxy-2,4-dihydro-indeno[1,2-c]pyrazol-3-yl)-amine], where the note is “PDGF-R kinase activity”, the inhibition at 10 µM is 100%. Moreover, the concentration for half-maximal inhibition (IC50) under setting [1] worked out at 0.0791 µM. On the same counts, the results for `Nc1ccc2c(c1)Cc1c-2n[nH]c1Nc1ccccc1` [Compound 66, N3-Phenyl-2,4-dihydro-indeno[1,2-c]pyrazole-3,6-diamine] are 108% and 0.092 µM. For `CCC1c2cc(OC)c(OC)cc2-c2c1c(Nc1cccc(Br)c1)nn2C(=O)COCc1ccccc1` (stereo not drawn) [Compound 519, 2-Benzyloxy-1-[3-(3-bromo-phenylamino)-4-ethyl-6,7-dimethoxy-4H-indeno[1,2-c]pyrazol-1-yl]-ethanone], in that order: 97.5% and 0.139 µM. For `COc1cc2c(cc1OCC(O)CN1CCCC1)Cc1c-2n[nH]c1NCc1c(Cl)cccc1Cl` (stereo not drawn) [Compound 390, 1-[3-(2,6-Dichloro-benzylamino)-7-methoxy-2,4-dihydro-indeno[1,2-c]pyrazol-6-yloxy]-3-pyrrolidin-1-yl-propan-2-ol], in that order: 99% and 0.00203 µM. Regarding `Fc1ccc2c(c1)Cc1c-2n[nH]c1Nc1ccccc1` [Compound 24, (6-Fluoro-2,4-dihydro-indeno[1,2-c]pyrazol-3-yl)-phenyl-amine], under “PDGF-R kinase activity”, the inhibition at 10 µM is 71%. For the same compound, under setting [1], the half-maximal inhibitory concentration (IC50) is 0.084 µM. On the same counts, the results for `COc1cc2c(cc1OC)C(C)c1c-2n[nH]c1Nc1ccc(F)c(Cl)c1` (stereo not drawn) [Compound 250, (3-Chloro-4-fluoro-phenyl)-(6,7-dimethoxy-4-methyl-2,4-dihydro-indeno[1,2-c]pyrazol-3-yl)-amine] are 88% and 0.223 µM.

Turning to `COc1ccc2c(c1)-c1n[nH]c(Nc3ccc(C(F)(F)F)cc3)c1C2` [Compound 178, (7-Methoxy-2,4-dihydro-indeno[1,2-c]pyrazol-3-yl)-(4-trifluoromethyl-phenyl)-amine], the inhibition at 10 µM (PDGF-R kinase activity) worked out at 98.5%. Further, the IC50 under setting [1] is 0.132 µM.

On to `c1ccc(Nc2[nH]nc3c2Cc2cc(N4CCCCC4)ccc2-3)cc1` [Compound 65, Phenyl-(6-piperidin-1-yl-2,4-dihydro-indeno[1,2-c]pyrazol-3-yl)-amine], for which the inhibition at 10 µM (PDGF-R kinase activity) was found to be 76%. For the same compound, the half-inhibitory concentration (IC50) under setting [1] worked out at 1.54 µM. For `COc1cc2c(cc1OC)-c1n[nH]c(Nc3cc(OC)c(OC)c(OC)c3)c1C2` [Compound 42, (6,7-Dimethoxy-2,4-dihydro-indeno[1,2-c]pyrazol-3-yl)-(3,4,5-trimethoxy-phenyl)-amine], in that order: 85% and 0.692 µM. Take `Cc1ccc2c(c1)-c1n[nH]c(Nc3cc(C(C)(C)C)cc(C(C)(C)C)c3)c1C2` [Compound 312, (3,5-Di-tert-butyl-phenyl)-(7-methyl-2,4-dihydro-indeno[1,2-c]pyrazol-3-yl)-amine]: the inhibition at 10 µM (PDGF-R kinase activity) worked out at 56.5%. Besides, the IC50 under setting [1] stood at 5.67 µM. On the same counts, the results for `Fc1ccc(F)c(Nc2[nH]nc3c2Cc2cc(Br)ccc2-3)c1` [Compound 153, (6-Bromo-2,4-dihydro-indeno[1,2-c]pyrazol-3-yl)-(2,5-difluoro-phenyl)-amine] are 79% and 1.03 µM. Consider `Cc1cccc(CNc2[nH]nc3c2Cc2ccc(C)cc2-3)c1` [Compound 314, (3-Methyl-benzyl)-(7-methyl-2,4-dihydro-indeno[1,2-c]pyrazol-3-yl)-amine], for which the inhibition at 10 µM (PDGF-R kinase activity) worked out at 76%. For the same compound, the IC50 under setting [1] is 0.894 µM.

On to `CCOc1cccc(Nc2[nH]nc3c2Cc2c(OCCCN4CCOCC4)cccc2-3)c1` [Compound 394, (3-Ethoxy-phenyl)-[5-(3-morpholin-4-yl-propoxy)-2,4-dihydro-indeno[1,2-c]pyrazol-3-yl]-amine], for which the inhibition at 10 µM (PDGF-R kinase activity) came out at 91%. The IC50 under setting [1] stood at 0.329 µM.

Take `COc1cccc(Nc2[nH]nc3c2C(C(C)C)c2cc(OC)c(OC)cc2-3)c1` (stereo not drawn) [Compound 541, (4-lsopropyl-6,7-dimethoxy-2,4-dihydro-indeno[1,2-c]pyrazol-3-yl)-(3-methoxy-phenyl)-amine]: the inhibition at 10 µM (PDGF-R kinase activity) worked out at 50%. Moreover, the half-maximal inhibitory concentration (IC50) under setting [1] was determined as 44.2 µM. For `COc1cc2c(cc1OC)-c1n[nH]c(Nc3cccc(C(=O)O)c3)c1C2` [Compound 115, 3-(6,7-Dimethoxy-2,4-dihydro-indeno[1,2-c]pyrazol-3-ylamino)-benzoic acid], in that order: 82% and 3.06 µM. On the same counts, the results for `Cc1ccc2c(c1)-c1n[nH]c(NCc3ccc(F)c(F)c3)c1C2` [Compound 317, (3,4-Difluoro-benzyl)-(7-methyl-2,4-dihydro-indeno[1,2-c]pyrazol-3-yl)-amine] are 79% and 1.25 µM. Regarding `Cc1cccc2c1Cc1c-2n[nH]c1Nc1cc(F)ccc1F` [Compound 103, (2,5-Difluoro-phenyl)-(5-methyl-2,4-dihydro-indeno[1,2-c]pyrazol-3-yl)-amine], the inhibition at 10 µM (PDGF-R kinase activity) is 43%. For the same compound, the IC50 under setting [1] is 4.1 µM.

For `COc1cc2c(cc1OC)-c1n[nH]c(NCc3ccc(F)cc3F)c1C2` [Compound 328, (2,4-Difluoro-benzyl)-(6,7-dimethoxy-2,4-dihydro-indeno[1,2-c]pyrazol-3-yl)-amine], the inhibition at 10 µM (PDGF-R kinase activity) was determined as 78.5%. Moreover, under setting [1], the IC50 is 0.697 µM. On the same counts, the results for `CC(C)Oc1cc2c(cc1OC(C)C)C(C)c1c-2n[nH]c1Nc1cccc(Br)c1` (stereo not drawn) [Compound 353, (3-Bromo-phenyl)-(6,7-diisopropoxy-4-methyl-2,4-dihydro-indeno[1,2-c]pyrazol-3-yl)-amine] are 88% and 0.359 µM. Regarding `COC(=O)c1cccc(Nc2[nH]nc3c2Cc2cc(N)ccc2-3)c1` [Compound 120, 3-(6-Amino-2,4-dihydro-indeno[1,2-c]pyrazol-3-ylamino)-benzoic acid methyl ester], the inhibition at 10 µM (PDGF-R kinase activity) came to 87%. The IC50 under setting [1] is 0.308 µM.
